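Grown in 96-well plates, cells were treated for 48 hours with each compound at five concentrations. Insufficient inhibition: endpoint recorded as highest concentration tested. TGI denotes the concentration required for complete inhibition of growth.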
Legend:
Assay in all cases: NCI anticancer screen, dose series, 48 h
[1] = system: 786-0 renal
[2] = system: A549 NSCLC
[3] = system: ACHN renal
[4] = system: BT-549 breast
[5] = system: CAKI-1 renal
[6] = system: COLO 205 colon
[7] = system: DU-145 prostate
[8] = system: EKVX NSCLC
[9] = system: HCC-2998 colon
[10] = system: HCT-116 colon
[11] = system: HCT-15 colon
[12] = system: HOP-62 NSCLC
[13] = system: HS 578T breast
[14] = system: HT29 colon
[15] = system: IGROV1 ovarian
[16] = system: KM12 colon
[17] = system: LOX IMVI melanoma
[18] = system: M14 melanoma
[19] = system: MALME-3M melanoma
[20] = system: MCF7 breast
[21] = system: MDA-MB-231 breast
[22] = system: MDA-N
[23] = system: NCI-H226 lung
[24] = system: NCI-H23 lung
[25] = system: NCI-H460 lung
[26] = system: NCI-H522 lung
[27] = system: NCI/ADR-RES ovarian
[28] = system: OVCAR-3 ovarian
[29] = system: OVCAR-5 ovarian
[30] = system: OVCAR-8 ovarian
[31] = system: PC-3 prostate
[32] = system: RXF 393 renal
[33] = system: SF-268 CNS
[34] = system: SF-295 CNS
[35] = system: SF-539 CNS
[36] = system: SK-MEL-5 melanoma
[37] = system: SK-OV-3 ovarian
[38] = system: SNB-19 CNS
[39] = system: SNB-75 CNS
[40] = system: TK-10 renal
[41] = system: UACC-257 melanoma
[42] = system: UACC-62 melanoma
[43] = system: UO-31 renal
[44] = system: A498 renal
[45] = system: CCRF-CEM leukemia
[46] = system: HOP-92 NSCLC
[47] = system: K-562 leukemia
[48] = system: MDA-MB-435
[49] = system: MOLT-4 leukemia
[50] = system: OVCAR-4 ovarian
[51] = system: RPMI-8226 leukemia
[52] = system: SK-MEL-2 melanoma
[53] = system: SK-MEL-28 melanoma
[54] = system: SN12C renal
[55] = system: SR leukemia
[56] = system: SW-620 colon
[57] = system: T-47D breast
[58] = system: U251 CNS

Measured: TGI

Oc1ccc(/C=N/c2nccs2)c(O)c1
92.1 µM: [6]
not listed: [44] | [45] | [46] | [47] | [48] | [49] | [50] | [51] | [52] | [53] | [54] | [55] | [56] | [57] | [58]
> 100 µM: all other assays above

O=C(O)c1cc(Cl)cc(Cc2cc(Cl)cc(C(=O)O)c2O)c1O
not listed: [9] | [23] | [41]
> 100 µM: all other assays above

Source: PubChem BioAssay (NCI)
